The nature of series [1]: Test B: Cytotoxicity Assay. The format is cell-based. As to conditions: human, uninfected MT-4 cells, CellTiter-Glo. How it is done: Test B: Cytotoxicity Assay Compound cytotoxicity and the corresponding CC50 values was determined using the same protocol as described in the antiviral assay (Test A) except that uninfected cells were used.
(ATP-based viability assays read luminescence as a measure of living cells.)

For another series, the system named is HIV-IIIb. The series can be described thus: Test A: Antiviral Assay in MT4 Cells. The format is cell-based, HIV-1. As to conditions: read-out: % inhibition at 0.2 μM (percent inhibition of virus-induced cell killing). A digest of the protocol:
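Readout was CellTiter-Glo luminescence after 10 min room-temperature lysis, taken 5 days after plating at 37 °C. The 2000 MT-4 cells per well, mixed 1 h beforehand with HIV-IIIb (m.o.i. 0.003), went straight onto the diluted compound.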

[2] abbreviates: Human immunodeficiency virus 1, IIIB, MT4, 120 h.
Where [3] appears, read: Human immunodeficiency virus 1, MT4, 120 h, 0.2 μM drug concentration, MT-4 cells infected with HIV-IIIb, 5 days, values normalized to 100%, average over time.

Where two headings read alike, the source gives them in different places.

Usually CC50 stands for the concentration that lowers cell viability or growth by half. A high value points to lower toxicity to the cells. As usually defined, the inhibition is the relative decrease from the control value, in per cent. In series [1], `CC(=O)N1CCO[C@](C)(C#Cc2ccc(-c3ccc(Cl)c4c(NS(C)(=O)=O)nn(C)c34)c([C@H](Cc3cc(F)cc(F)c3)NC(=O)Cn3nc(C(F)F)c4c3C(F)(F)[C@@H]3C[C@H]43)n2)C1` [Compound 86, N—((S)-1-(6-(((R)-4-acetyl-2-methylmorpholin-2-yl)ethynyl)-3-(4-chloro-1-methyl-3-(methylsulfonamido)-1H-indazol-7-yl)pyridin-2-yl)-2-(3,5-difluorophenyl)ethyl)-2-((3bS,4aR)-3-(difluoromethyl)-5,5-difluoro-3b,4,4a,5-tetrahydro-1H-cyclopropa[3,4]cyclopenta[1,2-c]pyrazol-1-yl)acetamide] gave a CC50 at 5 days of 21.4 µM. In addition, the inhibition at 0.2 µM with HIV-IIIb (setting [2]) was determined as 93%.
For the compound `Cn1nc(NS(C)(=O)=O)c2c(Cl)ccc(-c3ccc(C#CC4COCCN4)nc3[C@H](Cc3cc(F)cc(F)c3)NC(=O)Cn3nc(C(F)(F)F)c4c3C(F)(F)[C@@H]3C[C@H]43)c21` (stereo partly drawn) [Compound 49, N-((1S)-1-(3-(4-chloro-1-methyl-3-(methylsulfonamido)-1H-indazol-7-yl)-6-(morpholin-3-ylethynyl)pyridin-2-yl)-2-(3,5-difluorophenyl)ethyl)-2-((3bS,4aR)-5,5-difluoro-3-(trifluoromethyl)-3b,4,4a,5-tetrahydro-1 I-cyclopropa[3,4]cyclopenta[1,2-c]pyrazol-1-yl)acetamide], the CC50 at 5 days in series [1] turned out to be 20.6 µM. The inhibition at 0.2 µM in the series on HIV-IIIb (setting [3]) worked out at 92%.
`Cn1nc(NS(C)(=O)=O)c2c(Cl)ccc(-c3ccc(C#CC4(O)CC4)nc3[C@H](Cc3cc(F)cc(F)c3)NC(=O)Cn3nc(C(F)F)c4c3C(F)(F)[C@@H]3C[C@H]43)c21` [Compound 62B, N—((S)-1-(3-(4-chloro-1-methyl-3-(methylsulfonamido)-1H-indazol-7-yl)-6-((1-hydroxycyclopropyl)ethynyl)pyridin-2-yl)-2-(3,5-difluorophenyl)ethyl)-2-((3bS,4aR)-3-(difluoromethyl)-5,5-difluoro-3b,4,4a,5-tetrahydro-1H-cyclopropa[3,4]cyclopenta[1,2-c]pyrazol-1-yl)acetamide] gave a cytotoxic concentration (CC50) at 5 days in series [1] of 14.9 µM. Further, in the series with HIV-IIIb (setting [3]), the inhibition at 0.2 µM came to 93%.
Regarding `Cn1nc(NS(C)(=O)=O)c2c(Cl)ccc(-c3ccc(C#CC4(O)CC(F)(F)C4)nc3[C@H](Cc3cccc(F)c3)NC(=O)Cn3nc(C(F)(F)F)c4c3C(F)(F)[C@@H]3C[C@H]43)c21` [Compound 102, N—((S)-1-(3-(4-chloro-1-methyl-3-(methylsulfonamido)-1H-indazol-7-yl)-6-((3,3-difluoro-1-hydroxycyclobutyl)ethynyl)pyridin-2-yl)-2-(3-fluorophenyl)ethyl)-2-((3bS,4aR)-5,5-difluoro-3-(trifluoromethyl)-3b,4,4a,5-tetrahydro-1H-cyclopropa[3,4]cyclopenta[1,2-c]pyrazol-1-yl)acetamide], in series [1], half-maximal cytotoxicity (CC50 at 5 days) was put at 7.17 µM. The inhibition at 0.2 µM in the series with HIV-IIIb (setting [3]) is 88%.
Take `Cn1nc(NS(C)(=O)=O)c2c(Cl)ccc(-c3ccc(C#CC(C)(C)N4CCOC4=O)nc3[C@H](Cc3cc(F)cc(F)c3)NC(=O)Cn3nc(C(F)F)c4c3C(F)(F)[C@@H]3C[C@H]43)c21` [Compound 60D, N—((S)-1-(3-(4-chloro-1-methyl-3-(methylsulfonamido)-1H-indazol-7-yl)-6-(3-methyl-3-(2-oxooxazolidin-3-yl)but-1-yn-1-yl)pyridin-2-yl)-2-(3,5-difluorophenyl)ethyl)-2-((3bS,4aR)-3-(difluoromethyl)-5,5-difluoro-3b,4,4a,5-tetrahydro-1H-cyclopropa[3,4]cyclopenta[1,2-c]pyrazol-1-yl)acetamide]: the half-maximal cytotoxic concentration (CC50) at 5 days in series [1] is greater than 27.8 µM. Besides, the inhibition at 0.2 µM in the series with HIV-IIIb (setting [2]) was 94%.
The compound `Cn1nc(O)c2c(Cl)ccc(-c3ccc(C#CC4(O)CCOCC4)nc3[C@H](Cc3cc(F)cc(F)c3)NC(=O)Cn3nc(C(F)F)c4c3C(F)(F)[C@@H]3C[C@H]43)c21` [Compound 109E, N—((S)-1-(3-(4-chloro-3-hydroxy-1-methyl-1H-indazol-7-yl)-6-((4-hydroxytetrahydro-2H-pyran-4-yl)ethynyl)pyridin-2-yl)-2-(3,5-difluorophenyl)ethyl)-2-((3bS,4aR)-3-(difluoromethyl)-5,5-difluoro-3b,4,4a,5-tetrahydro-1H-cyclopropa[3,4]cyclopenta[1,2-c]pyrazol-1-yl)acetamide] had a CC50 at 5 days in series [1] of 22.3 µM. For the same compound, in the series on HIV-IIIb (setting [3]), the inhibition at 0.2 µM turned out to be 100%.
`Cn1nc(NS(C)(=O)=O)c2cccc(-c3ccc(C#CC4(O)CCC4)nc3[C@H](Cc3cc(F)cc(F)c3)NC(=O)Cn3nc(C(F)(F)F)c4c3C(F)(F)[C@@H]3C[C@H]43)c21` [Compound 24D, 2-((3bS,4aR)-5,5-difluoro-3-(trifluoromethyl)-3b,4,4a,5-tetrahydro-1H-cyclopropa[3,4]cyclopenta[1,2-c]pyrazol-1-yl)-N—((S)-2-(3,5-difluorophenyl)-1-(6-((1-hydroxycyclobutyl)ethynyl)-3-(1-methyl-3-(methylsulfonamido)-1H-indazol-7-yl)pyridin-2-yl)ethyl)acetamide] gave a CC50 at 5 days in series [1] of 15.8 µM. Moreover, the inhibition at 0.2 µM in the series with HIV-IIIb (setting [3]) came out at 100%.
In series [1], `O=C(Cn1nc(C(F)F)c2c1C(F)(F)CCC2(F)F)N[C@@H](Cc1cc(F)cc(F)c1)c1nc(C#Cc2cncnc2)ccc1-c1ccc2c(c1)C(=O)NC21CC1` [Compound 6, (S)-2-(3-(difluoromethyl)-4,4,7,7-tetrafluoro-4,5,6,7-tetrahydro-1H-indazol-1-yl)-N-(2-(3,5-difluorophenyl)-1-(3-(3′-oxospiro[cyclopropane-1,1′-isoindolin]-5′-yl)-6-(pyrimidin-5-ylethynyl)pyridin-2-yl)ethyl)acetamide] returned a CC50 at 5 days of 1.66 µM. In the series on HIV-IIIb (setting [3]), the inhibition at 0.2 µM was 0%.
In series [1], `Cn1nc(NS(C)(=O)=O)c2c(Cl)ccc(-c3ccc(C#CC4(C)CNCCO4)nc3[C@H](Cc3cc(F)cc(F)c3)NC(=O)Cn3nc(C(F)F)c4c3C(F)(F)[C@@H]3C[C@H]43)c21` (stereo partly drawn) [Compound 77, N-((1S)-1-(3-(4-chloro-1-methyl-3-(methylsulfonamido)-1H-indazol-7-yl)-6-((2-methylmorpholin-2-yl)ethynyl)pyridin-2-yl)-2-(3,5-difluorophenyl)ethyl)-2-((3bS,4aR)-3-(difluoromethyl)-5,5-difluoro-3b,4,4a,5-tetrahydro-1H-cyclopropa[3,4]cyclopenta[1,2-c]pyrazol-1-yl)acetamide] registered a CC50 at 5 days of 7.7 µM. For the same compound, the inhibition at 0.2 µM in the series on HIV-IIIb (setting [3]) came out at 90%.
Compound `NC(=O)c1cc(-c2ccc(C#CC3(O)CC(F)(F)C3)nc2[C@H](Cc2cc(F)cc(F)c2)NC(=O)Cn2nc(C(F)F)c3c2C(F)(F)[C@@H]2C[C@H]32)ccc1F` [Compound 106C, 5-(6-((3,3-difluoro-1-hydroxycyclobutyl)ethynyl)-2-((S)-1-(2-((3bS,4aR)-3-(difluoromethyl)-5,5-difluoro-3b,4,4a,5-tetrahydro-1H-cyclopropa[3,4]cyclopenta[1,2-c]pyrazol-1-yl)acetamido)-2-(3,5-difluorophenyl)ethyl)pyridin-3-yl)-2-fluorobenzamide] yielded a CC50 at 5 days in series [1] of 2.85 µM. For the same compound, the inhibition at 0.2 µM with HIV-IIIb (setting [3]) amounted to 100%.
In the case of `Cn1nc(NS(C)(=O)=O)c2c(Cl)ccc(-c3ccc(C#CC4(O)CCNC4)nc3[C@H](Cc3cc(F)cc(F)c3)NC(=O)Cn3nc(C(F)(F)F)c4c3C(F)(F)[C@@H]3C[C@H]43)c21` (stereo partly drawn) [Compound 58, N-((1S)-1-(3-(4-chloro-1-methyl-3-(methylsulfonamido)-1H-indazol-7-yl)-6-((3-hydroxypyrrolidin-3-yl)ethynyl)pyridin-2-yl)-2-(3,5-difluorophenyl)ethyl)-2-((3bS,4aR)-5,5-difluoro-3-(trifluoromethyl)-3b,4,4a,5-tetrahydro-1H-cyclopropa[3,4]cyclopenta[1,2-c]pyrazol-1-yl)acetamide], the CC50 at 5 days in series [1] was 5.19 µM. Further, in the series with HIV-IIIb (setting [3]), the inhibition at 0.2 µM is 91%.
For the compound `Cn1nc(NS(C)(=O)=O)c2cccc(-c3ccc(C#CC4(O)CC(F)(F)C4)nc3[C@H](Cc3cc(F)cc(F)c3)NC(=O)Cn3nc(C(F)(F)F)c4c3C(F)(F)[C@@H]3C[C@H]43)c21` [Compound 105D], the midpoint of cytotoxicity in series [1], the CC50 at 5 days, lay at 6.46 µM. Besides, the inhibition at 0.2 µM in the series with HIV-IIIb (setting [3]) is 88%.
The compound `CC(C)N1CCO[C@](C)(C#Cc2ccc(-c3ccc(Cl)c4c(NS(C)(=O)=O)nn(C)c34)c([C@H](Cc3cc(F)cc(F)c3)NC(=O)Cn3nc(C(F)F)c4c3C(F)(F)[C@@H]3C[C@H]43)n2)C1` [Compound 87, N—((S)-1-(3-(4-chloro-1-methyl-3-(methylsulfonamido)-1H-indazol-7-yl)-6-(((R)-4-isopropyl-2-methylmorpholin-2-yl)ethynyl)pyridin-2-yl)-2-(3,5-difluorophenyl)ethyl)-2-((3bS,4aR)-3-(difluoromethyl)-5,5-difluoro-3b,4,4a,5-tetrahydro-1H-cyclopropa[3,4]cyclopenta[1,2-c]pyrazol-1-yl)acetamide] showed a cytotoxic concentration (CC50) at 5 days in series [1] of 19.5 µM. Besides, the inhibition at 0.2 µM with HIV-IIIb (setting [3]) was determined as 100%.
In the case of `Cc1nccn1C(C)(C)C#Cc1ccc(-c2ccc(Cl)c3c(NS(C)(=O)=O)nn(C)c23)c([C@H](Cc2cc(F)cc(F)c2)NC(=O)Cn2nc(C(F)(F)F)c3c2C(F)(F)[C@@H]2C[C@H]32)n1` [Compound 90, N—((S)-1-(3-(4-chloro-1-methyl-3-(methylsulfonamido)-1H-indazol-7-yl)-6-(3-methyl-3-(2-methyl-1H-imidazol-1-yl)but-1-yn-1-yl)pyridin-2-yl)-2-(3,5-difluorophenyl)ethyl)-2-((3bS,4aR)-5,5-difluoro-3-(trifluoromethyl)-3b,4,4a,5-tetrahydro-1H-cyclopropa[3,4]cyclopenta[1,2-c]pyrazol-1-yl)acetamide], in series [1], the CC50 at 5 days is 3.04 µM. Further, the inhibition at 0.2 µM with HIV-IIIb (setting [3]) stood at 98%.

(Values after patent US9873680B2 (Gilead Sciences, Inc., priority 2014, dated 2018).)
